Experiment [1] has as its system GM1-NPCs. The experiment can be described thus: Morphology of GM1-NPCs originated neurosphere after treatment with inflammasome inhibitors (phase-contrast microscopy). Particulars: GM1-iPSCs and neural progenitor cells differentiated from the same; summary statement. Format: cell-based, human. How it is done:
To investigate the recovery of neural damage caused by the increased activation of inflammasome related metabolic pathway in GM1, GM1-NPCs were treated with the inflammasome inhibitors IL1β antagonist (rhIL1RA) and caspase-1 inhibitor (Z-YVAD-FMK), and then the morphology of GM1-NPCs was investigated.
Particularly, the differentiation of GM1-NPCs was induced by the same manner as described in Example <4-1>. Then, the induced GM1-NPCs were cultured in the culture medium respectively treated with 1 μg/ml rhIL1RA (R&D Systems, USA) or 10 μM Z-YVAD-FMK (Merck Millipore, Germany) in order to inhibit inflammasome therein. 2˜4 weeks later, the cultured GM1-NPCs originated neurosphere was obtained. The morphology of neurosphere was observed by phase-contrast microscopy.

Experiment [2] relates to GM1-NPCs. The experiment can be described thus: Gene expression pattern in GM1-NPCs treated with inflammasome inhibitor (microarray, qPCR). Particulars: for direction of the gene expression pattern change: genes with changed expression in treated GM1-NPCs, FIG. 31, FIG. 33; for share of oligo probe pairs / genes displaying the changed expression pattern: microarray, total 27,375 oligo probe pairs, GM1-NPCs treated with 10 μM Z-YVAD-FMK or 1 μg/ml rhIL1RA. Format: cell-based, human. On the procedure:
To investigate whether or not the neural damage could be alleviated according to the increase of the activation of inflammasome related metabolic pathway in GM1, the gene expression pattern in GM1-NPCs treated with the inflammasome inhibitor was investigated.
Particularly, GM1-NPCs were differentiated according to the method described in Example <4-1>, and then treated with rhIL1RA or Z-YVAD-FMK by the same manner as described in Example <9-1>. Microarray was performed by the same manner as described in Example <7-1> in order to investigate the up- or down-regulation of the gene involved in inflammasome. […] WT-NPC was used as the normal control. As for the negative control, GM1-NPCs were treated with DMSO instead of rhIL1RA or Z-YVAD-FMK. The expression pattern (either up- or down regulation) and the mRNA expression level were investigated by the same manner as described above.

The mark [3] stands for this setting: GM1-NPCs treated with 10 μM Z-YVAD-FMK, FIG. 32.

Take `COC(=O)C[C@H](NC(=O)[C@H](C)NC(=O)[C@@H](NC(=O)C(Cc1ccc(O)cc1)NC(=O)OCc1ccccc1)C(C)C)C(=O)CF` (stereo partly drawn) [Z-YVAD-FMK, methyl (3S)-3-[(2S)-2-[(2S)-2-(2-{[(benzyloxy)carbonyl]amino}-3-(4-hydroxyphenyl)propanamido)-3-methylbutanamido]propanamido]-5-fluoro-4-oxopentanoate]: in the experiment on GM1-NPCs [1], the “GM1 patient-specific cell morphology and gene expression pattern” value is “recovering the GM1 patient-specific cell morphology and gene expression pattern to the normal ones”. In the experiment with GM1-NPCs [2] (setting [3]), the “increase of the reduced B4GALNT expression” value was found to be 2.6 fold and the “reduction of GLB1 expression compared with that in GM1-NPCs” value is 47%. Besides, in the experiment with GM1-NPCs [2], the “direction of the gene expression pattern change” value is reported as “tendency to recover their gene expression patterns changed by GM1 mediated neural damage back to the normal pattern” and the “share of oligo probe pairs / genes displaying the changed expression pattern” value was 9.3%.

Turning to “rhIL1RA: interleukin 1-receptor antagonist protein, SEQ. ID. NO: 2, commercial (cat #280-RA-050; R&D systems)”, in the experiment on GM1-NPCs [1], the “GM1 patient-specific cell morphology and gene expression pattern” value is “recovering the GM1 patient-specific cell morphology and gene expression pattern to the normal ones”. In addition, in the experiment on GM1-NPCs [2], the “direction of the gene expression pattern change” value was “tendency to recover the abnormal gene expression in GM1 cells to the normal expression pattern” and the “share of oligo probe pairs / genes displaying the changed expression pattern” value is 3.6%.

The values above are taken from patent US20160069865A1, “GM1 GANGLIOSIDOSIS HUMAN CELL MODEL AND USE THEREOF” (Korea Research Institute of Bioscience and Biotechnology, priority 2014, published 2016).
